Experimental data: the supplement of paper PMC10307832

What was measured:
Assay in all cases: relative viability (nuclei count vs DMSO), 5 days (fraction); higher = more cells survive
RU-SKI 43 + Trametinib = compound: CC[C@@H](C)CNCC(=O)N1CCC2=C([C@@H]1COC3=CC=CC(=C3)C)C=CS2 [RU-SKI 43] + CC(=O)Nc1cccc(-n2c(=O)n(C3CC3)c(=O)c3c(Nc4ccc(I)cc4F)n(C)c(=O)c(C)c32)c1 [Trametinib] (partner 0.02 µM)
Method in brief: (§1)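 Lung cancer cell lines in 1536-well plates were dosed by pin tool the day after seeding, either with one drug alone or with a fixed anchor-drug dose plus five library-drug doses (not always all listed) in √10 steps. After 5 days, cells were fixed and their nuclei stained in one step (final 0.05% Triton X-100, 1% formaldehyde, 1 ug/ml Hoechst), then counted on 4× images. Relative viability is the nuclei count in treated wells divided by that in vehicle wells. Values are medians of duplicate plates.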

MK-8033 + Navitoclax = compound: Cn1cc(-c2cnc3ccc4ccc(CS(=O)(=O)NCc5ccccn5)cc4c(=O)c3c2)cn1 [MK-8033] + CC1(C)CCC(c2ccc(Cl)cc2)=C(CN2CCN(c3ccc(C(=O)NS(=O)(=O)c4ccc(N[C@H](CCN5CCOCC5)CSc5ccccc5)c(S(=O)(=O)C(F)(F)F)c4)cc3)CC2)C1 [Navitoclax] (partner 0.5 µM)
Method in brief: as §1

MK-8033 + Phenformin = compound: Cn1cc(-c2cnc3ccc4ccc(CS(=O)(=O)NCc5ccccn5)cc4c(=O)c3c2)cn1 [MK-8033] + N=C(N)NC(=N)NCCc1ccccc1 [Phenformin] (partner 250 µM)
Method in brief: as §1

MK-8033 + Olaparib = compound: Cn1cc(-c2cnc3ccc4ccc(CS(=O)(=O)NCc5ccccn5)cc4c(=O)c3c2)cn1 [MK-8033] + O=C(c1cc(Cc2n[nH]c(=O)c3ccccc23)ccc1F)N1CCN(C(=O)C2CC2)CC1 [Olaparib] (partner 8 µM)
Method in brief: as §1

Row | Cell Line | relative viability (RU-SKI 43 + Trametinib; first compound 0.1 µM) | relative viability (RU-SKI 43 + Trametinib; first compound 0.3162 µM) | relative viability (RU-SKI 43 + Trametinib; first compound 1 µM) | relative viability (RU-SKI 43 + Trametinib; first compound 3.162 µM) | relative viability (RU-SKI 43 + Trametinib; first compound 10 µM) | relative viability (MK-8033 + Navitoclax; first compound 0.02 µM) | relative viability (MK-8033 + Navitoclax; first compound 0.06325 µM) | relative viability (MK-8033 + Navitoclax; first compound 0.2 µM) | relative viability (MK-8033 + Navitoclax; first compound 0.6325 µM) | relative viability (MK-8033 + Navitoclax; first compound 2 µM) | relative viability (MK-8033 + Phenformin; first compound 0.02 µM) | relative viability (MK-8033 + Phenformin; first compound 0.06325 µM) | relative viability (MK-8033 + Phenformin; first compound 0.2 µM) | relative viability (MK-8033 + Phenformin; first compound 0.6325 µM) | relative viability (MK-8033 + Phenformin; first compound 2 µM) | relative viability (MK-8033 + Olaparib; first compound 0.02 µM) | relative viability (MK-8033 + Olaparib; first compound 0.06325 µM) | relative viability (MK-8033 + Olaparib; first compound 0.2 µM) | relative viability (MK-8033 + Olaparib; first compound 0.6325 µM) | relative viability (MK-8033 + Olaparib; first compound 2 µM)
1 | HCC-44 | 1.11 | 1.06 | 1.17 | 1.15 | 1.07 | 0.874 | 0.911 | 0.912 | 0.963 | 0.899 | 0.209 | 0.181 | 0.22 | 0.252 | 0.208 | 1 | 1.06 | 0.931 | 1.01 | 0.975
2 | HCC-78 | 0.678 | 0.916 | 0.641 | 0.809 | 0.724 | 0.596 | 0.665 | 0.767 | – | 0.774 | 0.806 | – | 0.668 | 0.728 | 0.799 | 0.717 | 0.82 | 0.739 | 0.505 | 0.775
3 | HCC-366 | 0.34 | 0.253 | 0.311 | 0.333 | 0.212 | 1.02 | 1.11 | 1.06 | 1.01 | 1.07 | 0.725 | 0.644 | 0.601 | 0.618 | 0.607 | 0.361 | 0.344 | 0.328 | 0.34 | 0.323
4 | HCC-827 | 0.501 | 0.52 | 0.545 | 0.574 | 0.46 | 0.963 | – | 0.939 | 0.918 | 0.984 | 0.407 | – | 0.397 | 0.424 | 0.393 | 0.653 | – | 0.644 | 0.561 | 0.488
5 | HOP-62 | 0.358 | 0.428 | 0.374 | 0.405 | 0.314 | 1.03 | 0.89 | 1.03 | 1.12 | 0.955 | 0.674 | 0.646 | 0.631 | 0.703 | 0.639 | 0.407 | 0.51 | 0.417 | 0.399 | 0.471
6 | IA-LM | – | – | – | – | – | 0.712 | 0.618 | 0.907 | 0.912 | 0.696 | – | – | – | – | – | 0.749 | 0.764 | 0.786 | 0.756 | 0.767
7 | LC-2-ad | 0.951 | 1.08 | 0.985 | 0.928 | 0.847 | 0.519 | 0.328 | 0.398 | 0.383 | 0.413 | 0.605 | 0.515 | – | 0.592 | 0.589 | 0.701 | 0.678 | 0.673 | 0.702 | 0.727
8 | LCLC-97TM1 | 0.193 | 0.246 | 0.256 | 0.187 | 0.148 | 0.402 | 0.506 | 0.396 | 0.398 | 0.401 | 0.393 | 0.433 | 0.456 | 0.454 | 0.439 | 0.346 | 0.387 | – | 0.406 | 0.256
9 | LCLC-103H | 0.689 | 0.755 | 0.726 | 0.677 | 0.724 | – | – | – | – | – | 0.378 | 0.334 | 0.314 | 0.355 | 0.396 | 0.731 | 0.778 | 0.737 | 0.729 | 0.815
10 | LK-2 | 0.766 | 1.01 | 0.915 | 0.828 | 0.736 | 0.907 | 0.853 | 0.807 | 0.924 | 0.772 | 0.708 | – | 0.326 | 0.437 | 0.305 | 0.974 | 0.694 | 0.765 | 0.678 | 0.81
11 | LOU-NH91 | 0.774 | 0.749 | 0.802 | 0.825 | 0.808 | 0.686 | – | 0.674 | 0.675 | 0.695 | 0.716 | 0.473 | 0.717 | 0.715 | 0.768 | 0.893 | 0.679 | 0.842 | 0.913 | 0.882
12 | NCI-H358 | 0.125 | 0.138 | 0.181 | 0.139 | 0.124 | – | – | – | – | – | 0.369 | 0.296 | 0.296 | 0.307 | 0.318 | 0.561 | 0.553 | 0.577 | 0.715 | 0.57
13 | NCI-H522 | 0.862 | 0.723 | 0.675 | 0.883 | 0.715 | – | – | – | – | – | 0.645 | 0.7 | 0.707 | 0.54 | 0.699 | 0.544 | 0.491 | 0.607 | 0.685 | 0.632
14 | NCI-H650 | 0.905 | 0.931 | – | 1.05 | 0.96 | – | – | – | – | – | 0.441 | 0.445 | 0.464 | 0.437 | 0.47 | 0.412 | 0.364 | 0.403 | 0.399 | 0.335
15 | NCI-H661 | 0.539 | 0.676 | 0.564 | 0.564 | 0.477 | – | – | – | – | – | 0.26 | 0.254 | 0.27 | 0.267 | 0.292 | 0.726 | 0.679 | 0.774 | 0.71 | 0.675
16 | NCI-H1299 | – | – | – | – | – | 1.04 | 1.03 | 1.03 | 1.07 | 1.01 | – | – | – | – | – | 1.01 | 0.967 | 0.927 | 1 | 0.982
17 | NCI-H1563 | – | – | – | – | – | – | – | – | – | – | 0.711 | 0.669 | 0.602 | 0.679 | 0.642 | – | – | – | – | –
18 | NCI-H1623 | – | – | – | – | – | – | – | – | – | – | 0.578 | 0.538 | 0.618 | 0.507 | 0.619 | – | – | – | – | –
19 | NCI-H1648 | 0.43 | 0.459 | 0.715 | 0.568 | 0.378 | – | – | – | – | – | – | – | – | – | – | 0.841 | – | 0.748 | 0.765 | 0.574
20 | NCI-H1703 | – | – | – | – | – | 0.967 | 1.08 | 0.988 | 1.12 | 0.924 | – | – | – | – | – | 0.385 | 0.304 | 0.524 | 0.336 | 0.598
21 | NCI-H2342 | 0.764 | – | 0.842 | 0.896 | 0.778 | – | – | – | – | – | 0.55 | 0.529 | 0.585 | 0.594 | 0.591 | 0.448 | 0.393 | 0.507 | 0.424 | 0.418
22 | SW 900 | 0.818 | 0.76 | 1.03 | 1.02 | 0.594 | – | – | – | – | – | 0.466 | 0.649 | 0.603 | 0.591 | 0.499 | 0.851 | 0.876 | 0.852 | 0.788 | 0.812
